Results reported in patent publication US10357514B2, “Treatment of cancer using anti-CD19 Chimeric Antigen Receptor” (The Trustees of the University of Pennsylvania, priority 2014, dated 2019).
Where two headings read alike, the source gives them in different places. Marks after values point to notes of the source that are not given here.

How the values were obtained:
[1] = tested on: PD-1-positive CD4 and CD8 and PD-1-negative CD4 T cells; experiment: FACS analysis of PD-1 on T cells in PBMC samples of subjects given RAD001; format: in vivo, human
[2] = Energy and exercise questionnaires one year after dosing; format: in vivo, human; conditions: 0.5 mg daily cohort
H3N2 A/Victoria/210/2009 = experiment: Hemagglutination inhibition titer and seroconversion after 2012 seasonal influenza vaccination; format: in vivo, human; conditions: for HI GMT ratio, A/H3N2: GMT at week 4 post vaccination/GMT at baseline; for Percent of subjects with seroconversion, H3N2: 4 weeks after vaccination
Text: (§1) Results were expressed as fluorescence intensity.
(§2) The primary analysis of geometric mean titer ratios was done using a normal Bayesian regression model with non-informative priors. This model was fitted to each antibody titer on the log scale. The primary outcome in each model was the Day 84 measurement. The Day 63 measurement was included in the outcome vector. The model fitted using SAS 9.2 proc mixed with the prior statement. The covariance structure of the matrix was considered as unstructured (option type=UN). A flat prior was used. For the secondary analysis of seroconversion rates, logistic regression was used.
(§3) The ability of RAD001 to improve immune function in elderly volunteers was evaluated by measuring the serologic response to the 2012 seasonal influenza vaccine. The hemagglutination inhibition (HI) geometric mean titers (GMT) to each of the 3 influenza vaccine strains at baseline and 4 weeks after influenza vaccination are provided in Table 10. The primary analysis variable was the HI GMT ratio (4 weeks post vaccination/baseline). […] This endpoint was chosen because a 1.2-fold increase in the influenza GMT ratio induced by the MF-59 vaccine adjuvant was associated with a decrease in influenza illness (Iob, A et al. (2005) Epidemiol Infect 133:687-693).
(§4) Rates of seroconversion 4 weeks after influenza vaccination were also evaluated. Seroconversion was defined as the change from a negative pre-vaccination titer (i.e., HI titer <1:10) to post-vaccination HI titer ≥1:40 or at least 4-fold increase from a non-negative (≥1:10) pre-vaccination HI titer.

B/Brisbane/60/2008 = experiment: as above; format: in vivo, human; conditions: for HI GMT ratio, B: GMT at week 4 post vaccination/GMT at baseline; for Percent of subjects with seroconversion, B: 4 weeks after vaccination
Text: as §1, §2, §3, §4

[3] = tested on: H1N1 A/California/07/2009; experiment: as above; format: in vivo, human; conditions: for HI GMT ratio, A/H1N1: GMT at week 4 post vaccination/GMT at baseline; for Percent of subjects with seroconversion, H1N1: 4 weeks after vaccination
Text: as §1, §2, §3, §4

[4] = cited from earlier work
[5] = tested on: PD-1 positive CD4 and CD8 T cells; experiment: Immunophenotyping of PBMC by flow cytometry; format: in vivo, human
[6] = week 6, pooled cohort, adjusted for baseline PD-1
[7] = week 12, pooled cohort, adjusted for baseline PD-1
[8] = week 12, 0.5 mg/Day, 5 mg/Week and 20 mg/Week cohorts
[9] = Baseline (2 weeks prior to influenza vaccination), 0.5 mg daily, N = 50
[10] = Baseline (2 weeks prior to influenza vaccination), 5 mg weekly, N = 49
[11] = Baseline (2 weeks prior to influenza vaccination), 20 mg weekly, N = 49
[12] = Intention to Treat Population, 0.5 mg, N = 48
[13] = Intention to Treat Population, 5 mg, N = 49
[14] = Intention to Treat Population, 20 mg, N = 48
[15] = Subjects with Baseline Titers <=40, 0.5 mg
[16] = Subjects with Baseline Titers <=40, 5 mg
[17] = Subjects with Baseline Titers <=40, 20 mg
[18] = Week 4 after influenza vaccination, 0.5 mg daily, N = 50
[19] = Week 4 after influenza vaccination, 5 mg weekly, N = 49
[20] = Week 4 after influenza vaccination, 20 mg weekly, N = 49

SMILES: CO[C@H]1C[C@@H]2CC[C@@H](C)[C@@](O)(O2)C(=O)C(=O)N2CCCC[C@H]2C(=O)O[C@H]([C@H](C)C[C@@H]2CC[C@@H](OCCO)[C@H](OC)C2)CC(=O)[C@H](C)/C=C(\C)[C@@H](O)[C@@H](OC)C(=O)[C@H](C)C[C@H](C)/C=C/C=C/C=C/1C [RAD001, (1R,9S,12S,15R,16E,18R,19R,21R,23S,24E,26E,28E,30S,32S,35R)-1,18-dihydroxy-12-{(1R)-2-[(1S,3R,4R)-4-(2-hydroxyethoxy)-3-methoxycyclohexyl]-1-methylethyl}-19,30-dimethoxy-15,17,21,23,29,35-hexamethyl-11,36-dioxa-4-aza-tricyclo[30.3.1.04,9]hexatriaconta-16,24,26,28-tetraene-2,3,10,14,20-pentaone]
- average RAD001 trough level (5 mg weekly, lower limit of quantification 0.3 ng/ml): below detection limits
- trough level of study dosing regimens lower than approved transplant and oncology regimens (dosing regimens used in the immunization study): 3-20 fold
- decrease in PD-1+ CD4 T cells compared to placebo [1, 6]: 30.2%
- decrease in PD-1-positive CD8 T cells compared to placebo [1, 6]: 37.4%
- decrease in PD-1-positive CD4 T cells compared to placebo [1, 7]: 32.7%
- decrease in PD-1-positive CD8 T cells compared to placebo [1, 7]: 41.4%
- decrease in PD-1-positive CD4 T cells as compared to placebo [1, 8]: −37.1-−28.5%
- decrease in PD-1-positive CD8 T cells as compared to placebo [1, 8]: −43.3-−38.5%
- increase in PD-1-negative CD4 T cells as compared to placebo [1, 8]: 3.0-4.9%
- self-reported energy and exercise ability compared to placebo [2]: increased energy and exercise ability
- HI GMT, A/H3N2 (H3N2 A/Victoria/210/2009; [9]): 106.8
- HI GMT, A/H3N2 (H3N2 A/Victoria/210/2009; [10]): 126.04
- HI GMT, A/H3N2 (H3N2 A/Victoria/210/2009; [11]): 137.1
- HI GMT ratio, A/H3N2 (H3N2 A/Victoria/210/2009; 0.5 mg daily, N = 50): 2.1
- HI GMT ratio, A/H3N2 (H3N2 A/Victoria/210/2009; 5 mg weekly, N = 49): 2.0
- HI GMT ratio, A/H3N2 (H3N2 A/Victoria/210/2009; 20 mg weekly, N = 49): 2.1
- Percent of subjects with seroconversion, H3N2 (H3N2 A/Victoria/210/2009; [12]): 27%
- Percent of subjects with seroconversion, H3N2 (H3N2 A/Victoria/210/2009; [13]): 24%
- Percent of subjects with seroconversion, H3N2 (H3N2 A/Victoria/210/2009; [14]): 25%
- Percent of subjects with seroconversion, H3N2 (H3N2 A/Victoria/210/2009; [15]): 64%
- Percent of subjects with seroconversion, H3N2 (H3N2 A/Victoria/210/2009; [16]): 53%
- Percent of subjects with seroconversion, H3N2 (H3N2 A/Victoria/210/2009; [17]): 71%
- HI GMT, A/H3N2 (H3N2 A/Victoria/210/2009; [18]): 194.4
- HI GMT, A/H3N2 (H3N2 A/Victoria/210/2009; [19]): 223.0
- HI GMT, A/H3N2 (H3N2 A/Victoria/210/2009; [20]): 223.0
- HI GMT, B (B/Brisbane/60/2008; [9]): 44.2
- HI GMT, B (B/Brisbane/60/2008; [10]): 64.8
- HI GMT, B (B/Brisbane/60/2008; [11]): 58.0
- HI GMT ratio, B (B/Brisbane/60/2008; 0.5 mg daily, N = 50): 2.5
- HI GMT ratio, B (B/Brisbane/60/2008; 5 mg weekly, N = 49): 2.2
- HI GMT ratio, B (B/Brisbane/60/2008; 20 mg weekly, N = 49): 2.1
- Percent of subjects with seroconversion, B (B/Brisbane/60/2008; [12]): 27%
- Percent of subjects with seroconversion, B (B/Brisbane/60/2008; [13]): 22%
- Percent of subjects with seroconversion, B (B/Brisbane/60/2008; [14]): 19%
- Percent of subjects with seroconversion, B (B/Brisbane/60/2008; [15]): 40* Percent
- Percent of subjects with seroconversion, B (B/Brisbane/60/2008; [16]): 33%
- Percent of subjects with seroconversion, B (B/Brisbane/60/2008; [17]): 28%
- HI GMT, B (B/Brisbane/60/2008; [18]): 98.4
- HI GMT, B (B/Brisbane/60/2008; [19]): 117.3
- HI GMT, B (B/Brisbane/60/2008; [20]): 99.2
- HI GMT, A/H1N1 [3, 9]: 102.8
- HI GMT, A/H1N1 [3, 10]: 84.2
- HI GMT, A/H1N1 [3, 11]: 90.1
- HI GMT ratio, A/H1N1 ([3]; 0.5 mg daily, N = 50): 2.6
- HI GMT ratio, A/H1N1 ([3]; 5 mg weekly, N = 49): 2.5
- HI GMT ratio, A/H1N1 ([3]; 20 mg weekly, N = 49): 1.8
- Percent of subjects with seroconversion, H1N1 [3, 12]: 27%
- Percent of subjects with seroconversion, H1N1 [3, 13]: 27%
- Percent of subjects with seroconversion, H1N1 [3, 14]: 17%
- Percent of subjects with seroconversion, H1N1 [3, 15]: 42%
- Percent of subjects with seroconversion, H1N1 [3, 16]: 45%
- Percent of subjects with seroconversion, H1N1 [3, 17]: 36%
- HI GMT, A/H1N1 [3, 18]: 190.2
- HI GMT, A/H1N1 [3, 19]: 198.73
- HI GMT, A/H1N1 [3, 20]: 129.7
- trough level of RAD001 ([4]; 10 mg daily oncology dosing regimen): approximately 20 ng/ml
- trough level of RAD001 ([4]; 0.75-1.5 mg bid transplant dosing regimen): approximately 3 ng/ml
- percentage of PD-1 negative CD4 T cells compared to placebo ([5]; RAD001 cohorts): increased
- percentage of CD4 PD-1 positive T cells ([5]; week 6 and 12, all RAD001 cohorts): decreased from baseline
- percentage of CD8 PD-1 positive cells ([5]; week 6 and 12, two lower dose RAD001 cohorts): decreased from baseline
